Assay results reported in PubChem BioAssay (NCI).
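How tested: cells in 96-well plates exposed to compound for 48 hours at five concentrations. GI50: concentration for 50% inhibition of growth. TGI is the concentration that stops growth completely.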

Tests used:
Assay in all cases: inhibition of tumour cell growth, NCI panel, 48 h
SK-OV-3 ovarian = system: SK-OV-3 ovarian
HOP-62 NSCLC = system: HOP-62 NSCLC
SN12C renal = system: SN12C renal
SF-268 CNS = system: SF-268 CNS
OVCAR-3 ovarian = system: OVCAR-3 ovarian
UACC-257 melanoma = system: UACC-257 melanoma
K-562 leukemia = system: K-562 leukemia
MALME-3M melanoma = system: MALME-3M melanoma
HL-60(TB) leukemia = system: HL-60(TB) leukemia
DU-145 prostate = system: DU-145 prostate
ACHN renal = system: ACHN renal
786-0 renal = system: 786-0 renal
SK-MEL-5 melanoma = system: SK-MEL-5 melanoma
SK-MEL-2 melanoma = system: SK-MEL-2 melanoma
IGROV1 ovarian = system: IGROV1 ovarian
NCI-H460 lung = system: NCI-H460 lung
NCI-H226 lung = system: NCI-H226 lung
HCC-2998 colon = system: HCC-2998 colon
SK-MEL-28 melanoma = system: SK-MEL-28 melanoma
SR leukemia = system: SR leukemia
SNB-75 CNS = system: SNB-75 CNS
KM12 colon = system: KM12 colon
RXF 393 renal = system: RXF 393 renal
HCT-116 colon = system: HCT-116 colon
A498 renal = system: A498 renal
HCT-15 colon = system: HCT-15 colon
T-47D breast = system: T-47D breast
MDA-N = system: MDA-N
MCF7 breast = system: MCF7 breast
UACC-62 melanoma = system: UACC-62 melanoma
U251 CNS = system: U251 CNS
BT-549 breast = system: BT-549 breast
A549 NSCLC = system: A549 NSCLC
MOLT-4 leukemia = system: MOLT-4 leukemia
SW-620 colon = system: SW-620 colon
NCI-H23 lung = system: NCI-H23 lung
HOP-92 NSCLC = system: HOP-92 NSCLC
CCRF-CEM leukemia = system: CCRF-CEM leukemia
NCI/ADR-RES ovarian = system: NCI/ADR-RES ovarian
OVCAR-5 ovarian = system: OVCAR-5 ovarian
EKVX NSCLC = system: EKVX NSCLC
HS 578T breast = system: HS 578T breast
SF-295 CNS = system: SF-295 CNS
TK-10 renal = system: TK-10 renal
SF-539 CNS = system: SF-539 CNS
OVCAR-8 ovarian = system: OVCAR-8 ovarian
PC-3 prostate = system: PC-3 prostate
MDA-MB-231 breast = system: MDA-MB-231 breast
MDA-MB-435 = system: MDA-MB-435
M14 melanoma = system: M14 melanoma
COLO 205 colon = system: COLO 205 colon
OVCAR-4 ovarian = system: OVCAR-4 ovarian
RPMI-8226 leukemia = system: RPMI-8226 leukemia
HT29 colon = system: HT29 colon
UO-31 renal = system: UO-31 renal
NCI-H522 lung = system: NCI-H522 lung
LOX IMVI melanoma = system: LOX IMVI melanoma
CAKI-1 renal = system: CAKI-1 renal
SNB-19 CNS = system: SNB-19 CNS

CC(=O)OC(C)c1cc2c(s1)C(=O)c1c(C(C)OC(C)=O)csc1C2=O (stereo unspecified)
TGI (SK-OV-3 ovarian): 13.8 µM | TGI (HOP-62 NSCLC): 2.5 µM | TGI (SN12C renal): 2.04 µM | TGI (SF-268 CNS): 13.2 µM | GI50 (OVCAR-3 ovarian): 0.278 µM | TGI (OVCAR-3 ovarian): 0.724 µM | GI50 (UACC-257 melanoma): 0.631 µM | TGI (UACC-257 melanoma): 1.89 µM | TGI (K-562 leukemia): 3.26 µM | GI50 (MALME-3M melanoma): 0.186 µM | TGI (MALME-3M melanoma): 0.412 µM | GI50 (HL-60(TB) leukemia): 0.0682 µM | TGI (HL-60(TB) leukemia): 2.15 µM | TGI (DU-145 prostate): 1.86 µM | TGI (ACHN renal): 2.82 µM | TGI (786-0 renal): 4.93 µM | GI50 (SK-MEL-5 melanoma): 0.631 µM | TGI (SK-MEL-5 melanoma): 1.83 µM | GI50 (SK-MEL-2 melanoma): 1.56 µM | TGI (SK-MEL-2 melanoma): 3.56 µM | TGI (IGROV1 ovarian): 3.28 µM | TGI (NCI-H460 lung): 1.58 µM | TGI (NCI-H226 lung): 3.62 µM | TGI (HCC-2998 colon): 3.1 µM | GI50 (SK-MEL-28 melanoma): 1.65 µM | TGI (SK-MEL-28 melanoma): 3.27 µM | TGI (SR leukemia): > 100 µM | TGI (SNB-75 CNS): 4.43 µM | TGI (KM12 colon): 3.41 µM | TGI (RXF 393 renal): 4.39 µM | TGI (HCT-116 colon): 10.2 µM | TGI (A498 renal): 3.64 µM | TGI (HCT-15 colon): 4.4 µM | TGI (T-47D breast): 5.52 µM | GI50 (MDA-N): 0.214 µM | TGI (MDA-N): 0.382 µM | TGI (MCF7 breast): 3.09 µM | GI50 (UACC-62 melanoma): 1.09 µM | TGI (UACC-62 melanoma): 2.51 µM | TGI (U251 CNS): 2.7 µM | GI50 (BT-549 breast): 2.14 µM | TGI (BT-549 breast): 3.83 µM | TGI (A549 NSCLC): 4.52 µM | TGI (MOLT-4 leukemia): 5.08 µM | TGI (SW-620 colon): 2.37 µM | GI50 (NCI-H23 lung): 0.878 µM | TGI (NCI-H23 lung): 2.29 µM | TGI (HOP-92 NSCLC): 5.55 µM | TGI (CCRF-CEM leukemia): 4.44 µM | TGI (NCI/ADR-RES ovarian): 3.62 µM | TGI (OVCAR-5 ovarian): 3.41 µM | TGI (EKVX NSCLC): 3.22 µM | GI50 (HS 578T breast): 2.08 µM | TGI (HS 578T breast): 7.59 µM | TGI (SF-295 CNS): 2.59 µM | TGI (TK-10 renal): 5.69 µM | TGI (SF-539 CNS): 2.36 µM | GI50 (OVCAR-8 ovarian): 0.452 µM | TGI (OVCAR-8 ovarian): 2.05 µM | TGI (PC-3 prostate): 6.6 µM | TGI (MDA-MB-231 breast): 3.6 µM | GI50 (MDA-MB-435): 0.185 µM | TGI (MDA-MB-435): 0.34 µM | GI50 (M14 melanoma): 0.516 µM | TGI (M14 melanoma): 1.79 µM | TGI (COLO 205 colon): 3.5 µM | TGI (OVCAR-4 ovarian): 2.75 µM | TGI (RPMI-8226 leukemia): 4.98 µM | TGI (HT29 colon): 4.35 µM | TGI (UO-31 renal): 2.9 µM

C=Cc1nc(C#N)c(N)o1
TGI (SK-OV-3 ovarian): > 100 µM | TGI (HOP-62 NSCLC): > 100 µM | TGI (SN12C renal): > 100 µM | TGI (SF-268 CNS): > 100 µM | TGI (OVCAR-3 ovarian): > 100 µM | TGI (UACC-257 melanoma): > 100 µM | TGI (K-562 leukemia): > 100 µM | TGI (MALME-3M melanoma): > 100 µM | TGI (HL-60(TB) leukemia): > 100 µM | TGI (DU-145 prostate): > 100 µM | TGI (786-0 renal): > 100 µM | TGI (NCI-H522 lung): > 100 µM | TGI (SK-MEL-5 melanoma): > 100 µM | TGI (SK-MEL-2 melanoma): > 100 µM | TGI (IGROV1 ovarian): > 100 µM | TGI (NCI-H460 lung): > 100 µM | TGI (NCI-H226 lung): > 100 µM | TGI (HCC-2998 colon): > 100 µM | TGI (SK-MEL-28 melanoma): > 100 µM | TGI (SNB-75 CNS): > 100 µM | TGI (KM12 colon): > 100 µM | TGI (RXF 393 renal): > 100 µM | TGI (HCT-116 colon): > 100 µM | TGI (A498 renal): > 100 µM | TGI (HCT-15 colon): > 100 µM | TGI (T-47D breast): > 100 µM | TGI (MDA-N): > 100 µM | TGI (MCF7 breast): > 100 µM | TGI (U251 CNS): > 100 µM | TGI (BT-549 breast): > 100 µM | TGI (A549 NSCLC): > 100 µM | TGI (MOLT-4 leukemia): > 100 µM | TGI (SW-620 colon): > 100 µM | TGI (NCI-H23 lung): > 100 µM | TGI (HOP-92 NSCLC): > 100 µM | TGI (CCRF-CEM leukemia): > 100 µM | TGI (NCI/ADR-RES ovarian): > 100 µM | TGI (OVCAR-5 ovarian): > 100 µM | TGI (EKVX NSCLC): > 100 µM | TGI (HS 578T breast): > 100 µM | TGI (SF-295 CNS): > 100 µM | TGI (TK-10 renal): > 100 µM | TGI (SF-539 CNS): > 100 µM | TGI (OVCAR-8 ovarian): > 100 µM | TGI (PC-3 prostate): > 100 µM | TGI (MDA-MB-231 breast): > 100 µM | TGI (LOX IMVI melanoma): > 100 µM | TGI (CAKI-1 renal): > 100 µM | TGI (MDA-MB-435): > 100 µM | TGI (M14 melanoma): > 100 µM | TGI (COLO 205 colon): > 100 µM | TGI (OVCAR-4 ovarian): > 100 µM | TGI (RPMI-8226 leukemia): > 100 µM | TGI (HT29 colon): > 100 µM | TGI (UO-31 renal): > 100 µM | TGI (SNB-19 CNS): > 100 µM

O=C1C2=C(SCCS2)C(=O)c2c(Sc3ccc(Cl)cc3)c(Sc3ccc(Cl)cc3)c(Sc3ccc(Cl)cc3)c(Sc3ccc(Cl)cc3)c21
TGI (SK-OV-3 ovarian): > 100 µM | TGI (HOP-62 NSCLC): > 100 µM | TGI (SN12C renal): > 100 µM | TGI (SF-268 CNS): > 100 µM | TGI (OVCAR-3 ovarian): > 100 µM | TGI (UACC-257 melanoma): > 100 µM | TGI (MALME-3M melanoma): 69.8 µM | TGI (DU-145 prostate): > 100 µM | TGI (ACHN renal): > 100 µM | TGI (786-0 renal): > 100 µM | TGI (SK-MEL-5 melanoma): > 100 µM | TGI (SK-MEL-2 melanoma): > 100 µM | TGI (IGROV1 ovarian): > 100 µM | TGI (NCI-H460 lung): > 100 µM | TGI (NCI-H226 lung): > 100 µM | TGI (HCC-2998 colon): > 100 µM | TGI (SR leukemia): 36.2 µM | TGI (SNB-75 CNS): > 100 µM | TGI (KM12 colon): > 100 µM | TGI (RXF 393 renal): 99.4 µM | TGI (HCT-116 colon): > 100 µM | TGI (A498 renal): 73.7 µM | TGI (HCT-15 colon): > 100 µM | TGI (T-47D breast): > 100 µM | TGI (MDA-N): > 100 µM | TGI (MCF7 breast): > 100 µM | TGI (UACC-62 melanoma): 52.8 µM | TGI (U251 CNS): > 100 µM | TGI (BT-549 breast): > 100 µM | TGI (A549 NSCLC): > 100 µM | TGI (MOLT-4 leukemia): 30.9 µM | TGI (SW-620 colon): > 100 µM | TGI (NCI-H23 lung): > 100 µM | TGI (CCRF-CEM leukemia): 23.8 µM | TGI (NCI/ADR-RES ovarian): > 100 µM | TGI (OVCAR-5 ovarian): > 100 µM | TGI (EKVX NSCLC): > 100 µM | TGI (HS 578T breast): > 100 µM | TGI (SF-295 CNS): > 100 µM | TGI (OVCAR-8 ovarian): > 100 µM | TGI (PC-3 prostate): > 100 µM | TGI (MDA-MB-231 breast): 85.3 µM | TGI (CAKI-1 renal): > 100 µM | TGI (MDA-MB-435): > 100 µM | TGI (M14 melanoma): > 100 µM | TGI (COLO 205 colon): > 100 µM | TGI (OVCAR-4 ovarian): > 100 µM | TGI (RPMI-8226 leukemia): > 100 µM | TGI (UO-31 renal): > 100 µM | TGI (SNB-19 CNS): 88.6 µM
